Test results published in US9340590B2 (priority 2011, dated 2016).
Read-outs that look alike come from different tables or passages of the source. Positions of bridges follow the written chain, without caps; N, C: chain ends. Residues, ends and D or L forms follow the SMILES beside them.

How the values were obtained:
hNav1.5 = hNav1.5 (Homo sapiens, UniProt Q14524); assay: cell-based
hNav1.3 = hNav1.3 (Homo sapiens, UniProt Q9NY46); assay: cell-based; conditions: IonWorks Quattro, read-out: IWQ Use Nav1.3
[1] = IonWorks Quattro, Use, read-out: IWQ Use Nav1.5

hNav1.5, sequence (Q14524 whole entry, looked up): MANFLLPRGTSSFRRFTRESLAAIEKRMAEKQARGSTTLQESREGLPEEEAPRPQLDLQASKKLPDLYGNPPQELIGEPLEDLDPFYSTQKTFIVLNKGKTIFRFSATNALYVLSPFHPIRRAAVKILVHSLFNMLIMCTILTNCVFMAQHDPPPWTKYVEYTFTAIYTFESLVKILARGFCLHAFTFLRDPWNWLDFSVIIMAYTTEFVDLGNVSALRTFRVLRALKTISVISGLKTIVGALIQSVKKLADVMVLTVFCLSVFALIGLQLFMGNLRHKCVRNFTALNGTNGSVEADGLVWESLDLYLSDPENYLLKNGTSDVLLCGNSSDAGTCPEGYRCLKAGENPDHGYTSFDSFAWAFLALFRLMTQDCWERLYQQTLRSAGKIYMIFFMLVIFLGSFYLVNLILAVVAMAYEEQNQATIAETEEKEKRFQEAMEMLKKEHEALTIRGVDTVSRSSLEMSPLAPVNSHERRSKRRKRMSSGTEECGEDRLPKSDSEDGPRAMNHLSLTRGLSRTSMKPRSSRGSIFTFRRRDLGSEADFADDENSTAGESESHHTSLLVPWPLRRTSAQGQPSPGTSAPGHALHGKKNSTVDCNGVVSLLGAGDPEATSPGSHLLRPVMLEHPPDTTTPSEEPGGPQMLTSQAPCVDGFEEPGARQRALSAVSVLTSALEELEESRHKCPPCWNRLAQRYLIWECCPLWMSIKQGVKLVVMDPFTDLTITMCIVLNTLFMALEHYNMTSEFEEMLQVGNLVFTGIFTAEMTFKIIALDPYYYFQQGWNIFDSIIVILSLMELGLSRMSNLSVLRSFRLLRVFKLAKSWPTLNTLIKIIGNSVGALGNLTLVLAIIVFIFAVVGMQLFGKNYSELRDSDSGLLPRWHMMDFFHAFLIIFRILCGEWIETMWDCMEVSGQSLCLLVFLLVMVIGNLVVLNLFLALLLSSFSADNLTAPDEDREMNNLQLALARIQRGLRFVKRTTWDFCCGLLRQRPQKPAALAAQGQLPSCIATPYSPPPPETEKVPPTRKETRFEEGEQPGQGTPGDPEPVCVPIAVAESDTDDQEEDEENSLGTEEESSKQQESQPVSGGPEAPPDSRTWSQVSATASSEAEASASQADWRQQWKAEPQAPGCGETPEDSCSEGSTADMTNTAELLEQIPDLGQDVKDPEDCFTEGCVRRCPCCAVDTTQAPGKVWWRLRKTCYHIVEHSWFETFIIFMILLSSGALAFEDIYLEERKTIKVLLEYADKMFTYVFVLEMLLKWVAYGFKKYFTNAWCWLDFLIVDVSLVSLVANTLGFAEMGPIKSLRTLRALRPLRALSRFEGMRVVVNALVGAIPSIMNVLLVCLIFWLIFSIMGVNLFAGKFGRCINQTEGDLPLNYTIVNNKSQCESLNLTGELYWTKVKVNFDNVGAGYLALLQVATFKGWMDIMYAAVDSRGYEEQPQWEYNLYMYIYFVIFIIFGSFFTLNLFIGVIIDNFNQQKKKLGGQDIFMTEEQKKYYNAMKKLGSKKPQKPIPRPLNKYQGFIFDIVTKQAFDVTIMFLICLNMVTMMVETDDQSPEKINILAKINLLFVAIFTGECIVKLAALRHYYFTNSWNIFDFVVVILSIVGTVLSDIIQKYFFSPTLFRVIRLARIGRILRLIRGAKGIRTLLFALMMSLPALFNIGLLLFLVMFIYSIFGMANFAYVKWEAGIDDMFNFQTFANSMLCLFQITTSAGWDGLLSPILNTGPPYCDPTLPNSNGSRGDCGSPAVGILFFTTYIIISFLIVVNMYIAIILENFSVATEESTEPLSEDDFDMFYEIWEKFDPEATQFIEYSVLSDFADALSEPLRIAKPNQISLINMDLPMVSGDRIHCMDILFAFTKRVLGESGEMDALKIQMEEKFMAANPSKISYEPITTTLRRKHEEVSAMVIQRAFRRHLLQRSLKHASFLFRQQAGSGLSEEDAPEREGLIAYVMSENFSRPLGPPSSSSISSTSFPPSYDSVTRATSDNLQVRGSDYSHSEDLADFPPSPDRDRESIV
hNav1.3, sequence (Q9NY46 whole entry, looked up): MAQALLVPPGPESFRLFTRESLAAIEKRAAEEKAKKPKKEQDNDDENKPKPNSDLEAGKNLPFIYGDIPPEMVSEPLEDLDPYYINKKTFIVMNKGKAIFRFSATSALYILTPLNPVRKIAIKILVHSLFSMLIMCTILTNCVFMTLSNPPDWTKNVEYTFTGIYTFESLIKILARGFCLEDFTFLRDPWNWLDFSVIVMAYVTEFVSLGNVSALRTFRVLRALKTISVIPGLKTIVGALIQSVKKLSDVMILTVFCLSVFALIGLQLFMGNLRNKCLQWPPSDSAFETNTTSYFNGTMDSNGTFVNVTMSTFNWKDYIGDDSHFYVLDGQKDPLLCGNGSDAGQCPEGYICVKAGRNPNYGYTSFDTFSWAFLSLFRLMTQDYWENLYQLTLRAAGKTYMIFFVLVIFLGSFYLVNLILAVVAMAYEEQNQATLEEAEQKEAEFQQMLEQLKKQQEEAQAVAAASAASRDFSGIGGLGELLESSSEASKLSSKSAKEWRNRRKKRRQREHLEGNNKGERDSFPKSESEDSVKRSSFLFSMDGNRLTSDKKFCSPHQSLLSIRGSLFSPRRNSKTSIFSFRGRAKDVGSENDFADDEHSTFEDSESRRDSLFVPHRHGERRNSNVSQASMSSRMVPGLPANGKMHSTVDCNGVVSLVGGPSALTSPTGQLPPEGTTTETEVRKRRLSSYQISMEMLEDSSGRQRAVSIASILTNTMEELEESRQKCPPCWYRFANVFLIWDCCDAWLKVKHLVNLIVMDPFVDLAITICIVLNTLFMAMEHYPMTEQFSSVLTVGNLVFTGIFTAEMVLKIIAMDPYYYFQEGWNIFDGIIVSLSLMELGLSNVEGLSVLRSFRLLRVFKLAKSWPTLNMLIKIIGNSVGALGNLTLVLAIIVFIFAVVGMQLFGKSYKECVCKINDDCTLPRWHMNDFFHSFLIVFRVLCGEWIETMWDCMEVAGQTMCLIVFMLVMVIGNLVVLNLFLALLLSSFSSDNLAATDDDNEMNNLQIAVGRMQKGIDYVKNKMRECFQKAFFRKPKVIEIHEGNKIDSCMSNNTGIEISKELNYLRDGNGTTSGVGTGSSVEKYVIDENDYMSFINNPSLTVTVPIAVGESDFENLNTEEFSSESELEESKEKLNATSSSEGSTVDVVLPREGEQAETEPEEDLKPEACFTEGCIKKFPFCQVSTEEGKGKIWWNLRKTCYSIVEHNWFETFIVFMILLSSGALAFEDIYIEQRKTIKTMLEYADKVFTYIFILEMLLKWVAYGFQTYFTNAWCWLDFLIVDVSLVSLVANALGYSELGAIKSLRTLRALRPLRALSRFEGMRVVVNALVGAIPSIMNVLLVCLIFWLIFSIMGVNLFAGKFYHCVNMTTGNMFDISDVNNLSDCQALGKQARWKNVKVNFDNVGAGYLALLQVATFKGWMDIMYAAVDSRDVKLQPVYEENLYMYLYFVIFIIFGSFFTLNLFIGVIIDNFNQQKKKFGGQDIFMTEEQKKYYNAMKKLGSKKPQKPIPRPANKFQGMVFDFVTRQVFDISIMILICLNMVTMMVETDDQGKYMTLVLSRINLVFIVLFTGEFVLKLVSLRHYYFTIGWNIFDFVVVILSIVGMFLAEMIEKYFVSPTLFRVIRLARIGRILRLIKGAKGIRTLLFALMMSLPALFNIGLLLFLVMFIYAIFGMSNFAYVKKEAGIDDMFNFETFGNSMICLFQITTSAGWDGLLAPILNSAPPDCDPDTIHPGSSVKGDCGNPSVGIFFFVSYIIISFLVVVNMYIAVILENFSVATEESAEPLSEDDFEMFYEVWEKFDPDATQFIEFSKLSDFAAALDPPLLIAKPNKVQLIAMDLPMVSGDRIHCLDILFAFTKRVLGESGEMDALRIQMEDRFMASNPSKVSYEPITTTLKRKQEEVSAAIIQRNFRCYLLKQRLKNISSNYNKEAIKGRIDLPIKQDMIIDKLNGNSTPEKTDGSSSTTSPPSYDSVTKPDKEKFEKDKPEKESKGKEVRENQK

| SMILES | IC50 (hNav1.5; Table 25, IonWorks Quattro, use, […], read-out: IWQ Use Nav1.5) [µM] | IC50 (hNav1.3; Table 25, use, […]) [nM] | IC50 (hNav1.5; IWQ Use Nav1.5 (μM)) [µM] | IC50 (hNav1.3; Use) [nM] | IC50 (hNav1.5; [1]) [µM] |
| --- | --- | --- | --- | --- | --- |
| CC[C@H](C)[C@@H]1NC(=O)[C@@H]2CSSC[C@@H]3NC(=O)[C@H](C(C)C)NC(=O)[C@H](CC(C)C)NC(=O)[C@H](CC(N)=O)NC(=O)[C@@H]4CCCN4C(=O)[C@H](CCCNC(=N)N)NC(=O)[C@H](CSSC[C@H](NC(=O)[C@@H](N)CC(=O)O)C(=O)N[C@@H](CC(C)C)C(=O)NCC(=O)N[C@@H](Cc4ccccc4)C(=O)N[C@@H](CCSC)C(=O)N[C@@H](CCCNC(=N)N)C(=O)N[C@@H](CCCCN)C(=O)N2)NC(=O)[C@H](CSSC[C@@H](C(=O)N[C@@H](CCCCN)C(=O)N[C@@H](C)C(=O)N[C@H](C(=O)N[C@@H](Cc2ccccc2)C(N)=O)C(C)C)NC(=O)[C@H](Cc2c[nH]c4ccccc24)NC(=O)[C@H](CCCCN)NC(=O)[C@H](Cc2cnc[nH]2)NC(=O)[C@H]([C@@H](C)O)NC(=O)[C@H](CCCNC(=N)N)NC(=O)[C@H](CO)NC3=O)NC(=O)[C@H](CCCCN)NC(=O)[C@H](CC(=O)O)NC(=O)[C@H](CC(N)=O)NC(=O)[C@H](CC(=O)O)NC(=O)[C@@H]2CCCN2C1=O [compound 14] (H-DCLGFMRKCIPDNDKCCRPNLVCSRTHKWCKAVF-NH2; disulfide 2-17, 9-23, 16-30) | 20.6 | 770 | – | – | – |
| CC[C@H](C)[C@@H]1NC(=O)[C@@H]2CSSC[C@@H]3NC(=O)[C@H](C(C)C)NC(=O)[C@H](CC(C)C)NC(=O)[C@H](CC(N)=O)NC(=O)[C@@H]4CCCN4C(=O)[C@H](CCCNC(=N)N)NC(=O)[C@H](CSSC[C@H](NC(=O)[C@@H](N)CC(=O)O)C(=O)N[C@@H](CC(C)C)C(=O)NCC(=O)N[C@@H](Cc4ccccc4)C(=O)N[C@@H](CCSC)C(=O)N[C@@H](CCCNC(=N)N)C(=O)N[C@@H](CCCCN)C(=O)N2)NC(=O)[C@H](CSSC[C@@H](C(=O)N[C@@H](CCCCN)C(=O)N[C@@H](Cc2ccc(O)cc2)C(=O)N[C@H](C(=O)N[C@@H](Cc2ccccc2)C(N)=O)C(C)C)NC(=O)[C@H](Cc2c[nH]c4ccccc24)NC(=O)[C@H](CCCCN)NC(=O)[C@H](Cc2cnc[nH]2)NC(=O)[C@H]([C@@H](C)O)NC(=O)[C@H](CCCNC(=N)N)NC(=O)[C@H](CO)NC3=O)NC(=O)[C@H](CCCCN)NC(=O)[C@H](CC(=O)O)NC(=O)[C@H](CC(N)=O)NC(=O)[C@H](CCCCN)NC(=O)[C@@H]2CCCN2C1=O [compound 42] (H-DCLGFMRKCIPKNDKCCRPNLVCSRTHKWCKYVF-NH2; disulfide 2-17, 9-23, 16-30) | – | – | 6.51 | 90 | – |
| CSCC[C@@H]1NC(=O)[C@H](Cc2ccccc2)NC(=O)CNC(=O)[C@H](CC(C)C)NC(=O)[C@@H](NC(=O)[C@@H](N)CC(=O)O)CSSC[C@@H]2NC(=O)[C@@H]3CSSC[C@@H](C(=O)N[C@@H](CCCCN)C(=O)N[C@@H](Cc4ccc(O)cc4)C(=O)N[C@H](C(=O)N[C@@H](Cc4ccccc4)C(N)=O)C(C)C)NC(=O)[C@H](Cc4c[nH]c5ccccc45)NC(=O)[C@H](CCCCN)NC(=O)[C@H](Cc4cnc[nH]4)NC(=O)[C@H]([C@@H](C)O)NC(=O)[C@H](CCCNC(=N)N)NC(=O)[C@H](CO)NC(=O)[C@H](CSSC[C@H](NC(=O)[C@H](CCCCN)NC(=O)[C@H](CCCNC(=N)N)NC1=O)C(=O)N[C@@H](C)C(=O)N1CCC[C@H]1C(=O)N[C@@H](CC(=O)O)C(=O)N[C@@H](CC(N)=O)C(=O)N[C@@H](CC(=O)O)C(=O)N[C@@H](CCCCN)C(=O)N3)NC(=O)[C@H](C(C)C)NC(=O)[C@H](CC(C)C)NC(=O)[C@H](CC(N)=O)NC(=O)[C@@H]1CCCN1C(=O)[C@H](CCCNC(=N)N)NC2=O [compound 45] (H-DCLGFMRKCAPDNDKCCRPNLVCSRTHKWCKYVF-NH2; disulfide 2-17, 9-23, 16-30) | – | – | – | 190 | 16.5 |
| CC[C@H](C)[C@@H]1NC(=O)[C@@H]2CSSC[C@@H]3NC(=O)[C@H](C(C)C)NC(=O)[C@H](CC(C)C)NC(=O)[C@H](CC(N)=O)NC(=O)[C@@H]4CCCN4C(=O)[C@H](CCCNC(=N)N)NC(=O)[C@H](CSSC[C@H](NC(=O)[C@@H](N)CC(=O)O)C(=O)N[C@@H](CC(C)C)C(=O)NCC(=O)N[C@@H](Cc4ccccc4)C(=O)N[C@@H](CCSC)C(=O)N[C@@H](CCCNC(=N)N)C(=O)N[C@@H](CCCCN)C(=O)N2)NC(=O)[C@H](CSSC[C@@H](C(=O)N[C@@H](CCCCN)C(=O)N[C@@H](Cc2ccc(O)cc2)C(=O)N[C@H](C(=O)N[C@@H](Cc2ccccc2)C(N)=O)C(C)C)NC(=O)[C@H](Cc2c[nH]c4ccccc24)NC(=O)[C@H](CCCCN)NC(=O)[C@H](Cc2cnc[nH]2)NC(=O)[C@H]([C@@H](C)O)NC(=O)[C@H](CCCNC(=N)N)NC(=O)[C@H](CO)NC3=O)NC(=O)[C@H](CCCCN)NC(=O)[C@H](CC(=O)O)NC(=O)[C@H](CCCCN)NC(=O)[C@H](CC(=O)O)NC(=O)[C@@H]2CCCN2C1=O [compound 48] (H-DCLGFMRKCIPDKDKCCRPNLVCSRTHKWCKYVF-NH2; disulfide 2-17, 9-23, 16-30) | – | – | – | 130 | 9.72 |
| CC[C@H](C)[C@@H]1NC(=O)[C@@H]2CSSC[C@@H]3NC(=O)[C@H](C(C)C)NC(=O)[C@H](CC(C)C)NC(=O)[C@H](CC(N)=O)NC(=O)[C@H](CCCCN)NC(=O)[C@H](CCCNC(=N)N)NC(=O)[C@H](CSSC[C@H](NC(=O)[C@@H](N)CC(=O)O)C(=O)N[C@@H](CC(C)C)C(=O)NCC(=O)N[C@@H](Cc4ccccc4)C(=O)N[C@@H](CCSC)C(=O)N[C@@H](CCCNC(=N)N)C(=O)N[C@@H](CCCCN)C(=O)N2)NC(=O)[C@H](CSSC[C@@H](C(=O)N[C@@H](CCCCN)C(=O)N[C@@H](Cc2ccc(O)cc2)C(=O)N[C@H](C(=O)N[C@@H](Cc2ccccc2)C(N)=O)C(C)C)NC(=O)[C@H](Cc2c[nH]c4ccccc24)NC(=O)[C@H](CCCCN)NC(=O)[C@H](Cc2cnc[nH]2)NC(=O)[C@H]([C@@H](C)O)NC(=O)[C@H](CCCNC(=N)N)NC(=O)[C@H](CO)NC3=O)NC(=O)[C@H](CCCCN)NC(=O)[C@H](CC(=O)O)NC(=O)[C@H](CC(N)=O)NC(=O)[C@H](CC(=O)O)NC(=O)[C@@H]2CCCN2C1=O [compound 50] (H-DCLGFMRKCIPDNDKCCRKNLVCSRTHKWCKYVF-NH2; disulfide 2-17, 9-23, 16-30) | – | – | – | 180 | 10.6 |
| CC[C@H](C)[C@@H]1NC(=O)[C@@H]2CSSC[C@@H]3NC(=O)[C@H](C(C)C)NC(=O)[C@H](CC(C)C)NC(=O)[C@H](CC(N)=O)NC(=O)[C@@H]4CCCN4C(=O)[C@H](CCCNC(=N)N)NC(=O)[C@H](CSSC[C@H](NC(=O)[C@@H](N)CC(=O)O)C(=O)N[C@@H](CC(C)C)C(=O)NCC(=O)N[C@@H](Cc4ccccc4)C(=O)N[C@@H](CCSC)C(=O)N[C@@H](CCCNC(=N)N)C(=O)N[C@@H](CCCCN)C(=O)N2)NC(=O)[C@H](CSSC[C@@H](C(=O)N[C@@H](CCCCN)C(=O)N[C@@H](Cc2ccc(O)cc2)C(=O)N[C@H](C(=O)N[C@@H](Cc2ccccc2)C(N)=O)C(C)C)NC(=O)[C@H](Cc2c[nH]c4ccccc24)NC(=O)[C@H](CCCCN)NC(=O)[C@H](Cc2cnc[nH]2)NC(=O)[C@H]([C@@H](C)O)NC(=O)[C@H](CCCCN)NC(=O)[C@H](CO)NC3=O)NC(=O)[C@H](CCCCN)NC(=O)[C@H](CC(=O)O)NC(=O)[C@H](CC(N)=O)NC(=O)[C@H](CC(=O)O)NC(=O)[C@@H]2CCCN2C1=O [compound 53] (H-DCLGFMRKCIPDNDKCCRPNLVCSKTHKWCKYVF-NH2; disulfide 2-17, 9-23, 16-30) | – | – | 15.2 | 240 | – |
| CC[C@H](C)[C@@H]1NC(=O)[C@@H]2CSSC[C@@H]3NC(=O)[C@H](C(C)C)NC(=O)[C@H](CC(C)C)NC(=O)[C@H](CC(N)=O)NC(=O)[C@@H]4CCCN4C(=O)[C@H](CCCNC(=N)N)NC(=O)[C@H](CSSC[C@H](NC(=O)[C@@H](N)CC(=O)O)C(=O)N[C@@H](CC(C)C)C(=O)NCC(=O)N[C@@H](Cc4ccccc4)C(=O)N[C@@H](CCSC)C(=O)N[C@@H](CCCNC(=N)N)C(=O)N[C@@H](CCCCN)C(=O)N2)NC(=O)[C@H](CSSC[C@@H](C(=O)N[C@@H](CCCCN)C(=O)N[C@@H](Cc2ccc(O)cc2)C(=O)N[C@H](C(=O)N[C@@H](Cc2ccccc2)C(N)=O)C(C)C)NC(=O)[C@H](Cc2c[nH]c4ccccc24)NC(=O)[C@H](CCCCN)NC(=O)[C@H](Cc2cnc[nH]2)NC(=O)[C@H]([C@@H](C)O)NC(=O)[C@H](CCCNC(=N)N)NC(=O)[C@H](CO)NC3=O)NC(=O)[C@H](CCCCN)NC(=O)[C@H](CC(=O)O)NC(=O)[C@H](CC(N)=O)NC(=O)[C@H](CCCNC(=N)N)NC(=O)[C@@H]2CCCN2C1=O [compound 67] (H-DCLGFMRKCIPRNDKCCRPNLVCSRTHKWCKYVF-NH2; disulfide 2-17, 9-23, 16-30) | – | – | – | 140 | 5 |
| CC[C@H](C)[C@@H]1NC(=O)[C@@H]2CSSC[C@@H]3NC(=O)[C@H](C(C)C)NC(=O)[C@H](CC(C)C)NC(=O)[C@H](CCCNC(=N)N)NC(=O)[C@@H]4CCCN4C(=O)[C@H](CCCNC(=N)N)NC(=O)[C@H](CSSC[C@H](NC(=O)[C@@H](N)CC(=O)O)C(=O)N[C@@H](CC(C)C)C(=O)NCC(=O)N[C@@H](Cc4ccccc4)C(=O)N[C@@H](CCSC)C(=O)N[C@@H](CCCNC(=N)N)C(=O)N[C@@H](CCCCN)C(=O)N2)NC(=O)[C@H](CSSC[C@@H](C(=O)N[C@@H](CCCCN)C(=O)N[C@@H](Cc2ccc(O)cc2)C(=O)N[C@H](C(=O)N[C@@H](Cc2ccccc2)C(N)=O)C(C)C)NC(=O)[C@H](Cc2c[nH]c4ccccc24)NC(=O)[C@H](CCCCN)NC(=O)[C@H](Cc2cnc[nH]2)NC(=O)[C@H]([C@@H](C)O)NC(=O)[C@H](CCCNC(=N)N)NC(=O)[C@H](CO)NC3=O)NC(=O)[C@H](CCCCN)NC(=O)[C@H](CC(=O)O)NC(=O)[C@H](CC(N)=O)NC(=O)[C@H](CC(=O)O)NC(=O)[C@@H]2CCCN2C1=O [compound 69] (H-DCLGFMRKCIPDNDKCCRPRLVCSRTHKWCKYVF-NH2; disulfide 2-17, 9-23, 16-30) | – | – | – | 80 | 14.9 |
